{"source": "patent US8389573B2", "about": "“Glycyrrhetinic acid derivatives” (Wellington Laboratories Inc., priority 2006, dated 2013)", "key": {"AR promoter": {"test_system": "AR promoter", "assay": "AR-luc promoter luciferase assay in LNCaP cells", "assay_type": "cell-based", "description": "Transfections: The Gal4 reporter construct containing 5× Gal4 response elements (pGal4) was kindly provided by Dr. Marty Mayo (University of North Carolina, Chapel Hill, N.C.). The Gal4 DBD-PPARγ construct was a gift of Dr. Jennifer L. Oberfield (Glaxo Wellcome Research and Development, Research Triangle Park, N.C.). The PPRE-luc construct contains three tandem PPREs with a minimal TATA sequence linked to the luciferase gene in pGL2. The AR-luc construct containing the −5400 to +580 region of the androgen receptor promoter was provided by Dr. Donald J. Tindall (Mayo Clinic, Rochester, Minn.), and the PSA-luc construct containing the 5.8-kilobase region of the PSA promoter was provided by Dr. Hong-Wu Cheng (University of California, Davis, Calif.). LNCaP cells (1×10^5) were seeded in 12-well plates in DMEM/Ham's F-12 media supplemented with 2.5% charcoal-stripped FBS and grown overnight. Transient transfections were performed using Lipofectamine reagent (Invitrogen) according to the protocol provided by the manufacturer. Transfection studies were performed using 0.4 μg of Gal4Luc, 0.04 μg of β-galactosidase, 0.04 μg of Gal4 DBD-PPARγ, 0.4 μg of AR-luc, and 0.3 μg of PSA-luc. […] A Lumicount luminometer (PerkinElmer Life and Analytical Sciences) was used to quantify luciferase and β-galactosidase activities, and the luciferase activities were normalized to β-galactosidase activity."}, "HT-29 cells": {"test_system": "HT-29 cells", "assay": "Western blot analysis in HT-29 cells", "assay_type": "cell-based, human", "protocol": "SW-480 and HT-29 (3×10^5) cells were seeded in six-well plates in DMEM/Ham's F-12 media containing 2.5% charcoal-stripped FBS for 24 h and then treated with either the vehicle (DMSO) or the indicated compounds. Whole-cell lysates were obtained using high-salt buffer [50 mM HEPES, 500 mM NaCl, 1.5 mM MgCl2, 1 mM EGTA, 10% glycerol, and 1% Triton X-100, pH 7.5, and 5 μl/ml Protease Inhibitor Cocktail (Sigma-Aldrich)]. Protein samples were incubated at 100° C. for 2 min, separated on 10% SDS-PAGE at 120 V for 3 to 4 h in 1× running buffer (25 mM Tris-base, 192 mM glycine, and 0.1% SDS, pH 8.3), and transferred to polyvinylidene difluoride membrane (PVDF; Bio-Rad, Hercules, Calif.) at […] for 16 h at 4° C. in 1× transfer buffer (48 mM Tris-HCl, 39 mM glycine, and 0.025% SDS). The PVDF membrane was blocked in 5% TBST-Blotto (10 mM Tris-HCl, 150 mM NaCl, pH 8.0, 0.05% Triton X-100, and 5% nonfat dry milk) with gentle shaking for 30 min and was incubated in fresh 5% TBST-Blotto with 1:1000 (for caveolin-1, p27, p21, cyclin D1, Grp78), 1:500 (for KLF4, NAG-1), 1:250 (for PARP), and 1:5000 (for β-actin) primary antibody overnight with gentle shaking at 4° C. After washing with TBST for 10 min, the PVDF membrane was incubated with secondary antibody (1:5000) in 5% TBST-Blotto for 90 min. The membrane was washed with TBST for 10 min, incubated with 10 ml of chemiluminescence substrate (PerkinElmer) for 1.0 min, and exposed to Kodak X-OMAT AR autoradiography film (Eastman Kodak, Rochester, N.Y.)."}, "[1]": {"test_system": "Sp protein levels in RKO cells", "assay": "Sp protein expression (gel) in RKO cells", "assay_type": "cell-based"}, "[2]": {"test_system": "Sp1, Sp3 and Sp4 protein expression in Panc28 cells", "assay": "Sp protein expression (gels) in Panc28 cells", "assay_type": "cell-based"}}, "note": "“Also recorded” adds a separate entry of the source."}
{"smiles": "COC(=O)[C@@]1(C)CC[C@]2(C)CC[C@]3(C)C(=CC(=O)[C@@H]4[C@@]5(C)C=C(C#N)C(=O)C(C)(C)[C@@H]5CC[C@]43C)[C@@H]2C1", "note": "[β-CDODA-Me, Methyl 2-cyano-3,11-dioxo-18β-oleana-1,12-dien-30-oate]", "values": [{"measurement": "luciferase activity of AR-Luc construct", "setting": "AR promoter", "result": "decreased luciferase activity"}, {"measurement": "NAG-1 and KLF4 proteins", "setting": "HT-29 cells; HT-29, 24 hours", "result": "induction of NAG-1 and KLF4 proteins"}, {"measurement": "PARP cleavage", "setting": "HT-29 cells; HT-29, 24 hours", "result": "induction of PARP cleavage"}, {"measurement": "NAG-1 protein levels", "setting": "HT-29 cells; HT-29, 24 hours, higher (5 μM) concentration", "result": "decreased"}, {"measurement": "induction of NAG-1 and PARP cleavage after cotreatment with T007", "setting": "HT-29 cells; HT-29, 24 hr", "result": "not affected"}, {"measurement": "KLF-4 induction after cotreatment with T007", "setting": "HT-29 cells; HT-29, 24 hr, 10 μM T007", "result": "blocks this induction response"}, {"measurement": "caveolin-1", "setting": "HT-29 cells; HT-29, 3 days", "result": "induction of caveolin-1"}, {"measurement": "induction of caveolin-1 after cotreatment with T007", "setting": "HT-29 cells; HT-29, 96 hr, 10 μM T007", "result": "inhibited"}, {"measurement": "Sp protein expression", "setting": "[1]", "result": "decreases Sp protein expression"}, {"measurement": "VEGF protein expression", "setting": "[1]", "result": "decreased VEGF protein expression"}, {"measurement": "decrease of Sp protein expression with T007 or proteasome inhibitors", "setting": "[1]", "result": "not reversed"}, {"measurement": "Sp1, Sp3 and Sp4 protein expression", "setting": "[2]", "result": "concentration-dependent decrease; also recorded: induces Sp protein degradation"}, {"measurement": "VEGF expression", "setting": "[2]", "result": "parallel decrease"}, {"measurement": "caspase-dependent apoptosis (PARP cleavage)", "setting": "[2]", "result": "induction of caspase-dependent apoptosis"}, {"measurement": "effects on Sp protein expression with PPARγ antagonist (T007)", "setting": "[2]", "result": "not blocked; also recorded: not reversed"}, {"measurement": "effects on Sp protein expression with proteasome inhibitor lactacystin", "setting": "[2]", "result": "not blocked; also recorded: only a minimal amount of reversal"}]}
